{
  "source": "patent US12318361B2",
  "about": "“Methods for treating cardiovascular diseases” (Olatec Therapeutics LLC, priority 2017, dated 2025)",
  "key": {"[1]": {"test_system": "IL-1β release from human monocytes-derived macrophages", "experiment": "Suppression of IL-1β release from human monocytes-derived macrophages (LPS priming, nigericin release, ELISA)", "type": "cell-based", "experimental": "(§1) Peripheral blood mononuclear cells (PBMCs) were isolated from blood of 6 healthy human donors and differenciates in macrophages using GM-CSF (5 ng/ml) for 5 days. They were stimulated with 1 μg/mL with lipopolysaccharide (LPS, priming phase) at time zero. At 30 minutes, they were incubated with different concentrations of dapansutrile (OLT1177™) from 0.001-100 μM. At 4 hours, 10 μM of nigericin (NIG, release phase) was added. At the end of an 5 hour incubation period, the supernatant was harvested and assayed for IL-1β or IL-18 using respective ELISA kits following manafacturer's protocols."}, "[2]": {"test_system": "IL-18 release from human monocytes-derived macrophages", "experiment": "Suppression of IL-18 release from human monocytes-derived macrophages (LPS priming, nigericin release, ELISA)", "type": "cell-based", "experimental": "as §1"}, "[3]": {"test_system": "caspase-1", "experiment": "Caspase-1 activity in J774A.1 cell lysates after LPS and nigericin stimulation", "type": "cell-based, murine", "details": "50 μM, J774A.1 cells, n=3, p<0.05", "experimental": "J774A.1 murine macrophages cells were stimulated with 1 μg/ml lipopolysaccharide (LPS) for 4 hours and either nigericin (NIG, 10 μM) or ATP (5 mM) was added for 1 hour. OLT1177™ was added to the cells either 30 minutes following LPS stimulation or at the same time as ATP.\n1 cell lysates following LPS and NIG stimulation in presence of 50 μM dapansutrile (OLT1177™). Caspase-1 activity is expressed as percent change of the mean value of each assay (n=3) with LPS/NIG set at 100%. Caspase-1 activity was reduced by 35% (p<0.05) in an enzymatic assay of cell lysate from stimulated cells in the presence of dapansutrile, comparing with control."}, "[4]": {"test_system": "rats, thrombus formation in abdominal aorta", "experiment": "Thrombus formation in anesthetized rats (abdominal aorta stenosis and compression injury)", "type": "in vivo, rats (CD-1)", "details": "intravenous via tail vein, 5 min before injury; written in present tense", "experimental": "To evaluate the effect of dapansutrile on thrombus formation in vivo, the following experimental protocol is performed.\nRats (CD-1; male; approximately 350 grams; Charles River, Raleigh, NC), are anesthetized with sodium pentobarbital (70 mg/kg i.p.). The abdomens are shaved and a 22 gauge intravenous catheter is inserted into a lateral tail vein. A midline incision is made and the intestines are wrapped in saline-soaked gauze and positioned so the abdominal aorta is accessible. […] All branches from the aorta in this section are ligated with 4-0 silk suture. A 2.5 mm diameter flow probe connected to a Transonic flow meter is placed on the artery and a baseline (pre-stenosis) flow is recorded. Two clips are placed around the artery decreasing the vessel diameter by approximately 80%. A second baseline flow measurement is taken (post-stenosis) and the hyperemic response is tested. Animals are then treated with either Rho kinase inhibitor compound or saline intravenously via tail vein catheter. Thrombosis is induced five minutes after treatment by repeated external compressions of the vessel with hemostatic forceps. Two minutes post-injury, the vessel compressions are repeated and a 10 minute period of flow monitoring is started. Animals are monitored continuously for a minimum of the first ten minutes post-injury. […]"}, "[5]": {"test_system": "dogs, occlusive coronary thrombus formation", "experiment": "Thrombus formation in anesthetized dogs (anodal current to left circumflex coronary artery)", "type": "in vivo", "details": "intravenous, about 30 min before anodal current; written in present tense", "experimental": "To evaluate the effect of compound of Formula I or II on dynamic thrombus formation in vivo, the following experimental protocol, similar to the method of J. L. Romson et al. (Thromb. Res. 17:841-853, 1980), is performed.\nSurgical Preparation and Instrumentation. Briefly, purpose-bred dogs are anesthetized, intubated and ventilated with room air. The heart is exposed by a left thoracotomy in the fifth intercostal space and suspended in a pericardial cradle. A 2-3 cm segment of the left circumflex coronary artery (LCCA) is isolated by blunt dissection. The artery is instrumented from proximal to distal with a flow probe, a stimulation electrode, and a Goldblatt clamp. The flow probe monitors the mean and phasic LCCA blood flow velocities. […]\nExperimental Protocol: Dogs are randomized to one of four treatment protocols in which the control group receives saline intravenously and the three drug-treated groups are administered Rho kinase inhibitor compound intravenously. […] The number and frequency of cyclic flow variations (CFV) that precede formation of an occlusive thrombus are recorded. […]"}, "[6]": {"details": "HMDM, 1 μg/mL LPS then 10 μM nigericin, 0.001-100 μM tested"}, "[7]": {"details": "LPS/nigericin, compared to control"}},
  "data": [
    {"smiles": "CS(=O)(=O)CCC#N", "note": "[OLT1177™, 3-methanesulfonyl-propionitrile]", "values": [
      {"measurement": "concentration of maximum suppression effect on IL-1β release", "setting": "[1]; [6]", "value": 1, "unit": "µM"},
      {"measurement": "release of IL-1β from stimulated monocytes-derived macrophages", "setting": "[1]; [7]", "value": "suppresses"},
      {"measurement": "concentration of maximum suppression effects on IL-18 release", "setting": "[2]; [6]", "value": "10 to 50", "unit": "µM"},
      {"measurement": "release of IL-18 from stimulated monocytes-derived macrophages", "setting": "[2]; [7]", "value": "suppresses"},
      {"measurement": "reduction of caspase-1 activity in cell lysate (LPS/NIG set at 100%)", "setting": "[3]", "value": 35, "unit": "%"},
      {"measurement": "histological evidence of thrombosis", "setting": "[4]", "value": "decrease"},
      {"measurement": "vessel injury-induced flow reduction", "setting": "[4]", "value": "decrease"},
      {"measurement": "number and frequency of cyclic flow variations that precede formation of an occlusive thrombus", "setting": "[5]", "value": "significantly increases"}
    ]}
  ]
}
